The results in this text go back to PMC12811659.

Bounds are passed on as bounds.

Assay in series [1]: not given
The source holds these as a separate data set.

Assay in series [2]: not given
The source holds these as a separate data set.

`CC[C@H](C)[C@H](NC(=O)Cn1nc(C)c(/N=N\c2ccccc2)c1C)C(=O)N[C@@H](CO)C(=O)N[C@@H](C)C(=O)O` registered a cis-isomer fraction after 365 nm irradiation above 98%.

As to `CC[C@H](C)[C@H](NC(=O)Cn1nc(C)c(/N=N/c2ccccc2)c1C)C(=O)N[C@@H](CO)C(=O)N[C@@H](C)C(=O)O`, in series [1], the trans-isomer fraction, native state amounted to 85%. This molecule came in with a trans-isomer fraction after 520 nm irradiation in series [2] of 87%.
